Data published in PubChem BioAssay AID248 (DTP/NCI, 2004).
“And” between values parts separate entries of the source, which are not always exact repeats. Equal values may be shown once. Toxic doses and inconclusive results are not listed. Cut-off read from the data, not from the text of the source: active = T/C of 150% or more; inactive = T/C below 125%.

System: L1210 leukemia ip in BDF1 mice, survival T/C
Assay: NCI In Vivo Anticancer Drug Screen. Data for tumor model L1210 Leukemia (intraperitoneal) in B6D2F1 (BDF1) mice
Details: endpoint: mean survival time, higher = longer survival
In short: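 Tumor cells were implanted, animals were treated, and survival was followed. The result divides the treated measurement by the vehicle-control measurement.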

[1] = dose: 100.0 mg/kg/injection, schedule: Q01DX009 (ip), vehicle: Klucel (hydroxypropylcellulose) (HPC)
[2] = dose: 200.0 mg/kg/injection, schedule: Q01DX009 (ip), vehicle: Klucel (hydroxypropylcellulose) (HPC)
[3] = dose: 50.0 mg/kg/injection, schedule: Q01DX009 (ip), vehicle: saline
[4] = dose: 100.0 mg/kg/injection, schedule: Q01DX009 (ip), vehicle: saline
[5] = dose: 200.0 mg/kg/injection, schedule: Q01DX009 (ip), vehicle: saline

Measured: T/C

COc1ccc2c(c1)c(=NCCCCN=c1c3cc(OC)ccc3n(O)c3cc(Cl)ccc13)c1cc(Cl)ccc1n2O
inactive: dose: 12.5 mg/kg/injection, schedule: Q01DX009 (ip), vehicle: other 93 % of control | dose: 25.0 mg/kg/injection, schedule: Q01DX009 (ip), vehicle: other 93 % of control | dose: 50.0 mg/kg/injection, schedule: Q01DX009 (ip), vehicle: other 93 % of control and 101 % of control | dose: 100.0 mg/kg/injection, schedule: Q01DX009 (ip), vehicle: other 101 % of control | dose: 200.0 mg/kg/injection, schedule: Q01DX009 (ip), vehicle: other 101 % of control

CC(=O)O/N=C1\C(C)=[N+]([O-])[N+]([O-])=C1c1ccccc1
inactive: dose: 50.0 mg/kg/injection, schedule: Q01DX009 (ip), vehicle: Klucel (hydroxypropylcellulose) (HPC) 98 % of control | [1] 87 % of control | [2] 90 % of control

COc1ncc(F)c(OC)n1
inactive: dose: 100.0 mg/kg/injection, schedule: Q01DX001 (ip), vehicle: saline 100 % of control | dose: 200.0 mg/kg/injection, schedule: Q01DX001 (ip), vehicle: saline 96 % of control | dose: 400.0 mg/kg/injection, schedule: Q01DX001 (ip), vehicle: saline 91 % of control

O=C=NCCCl
inactive: dose: 0.5 mg/kg/injection, schedule: Q01DX001 (ip), vehicle: propolene glycol 101 % of control | dose: 1.0 mg/kg/injection, schedule: Q01DX001 (ip), vehicle: propolene glycol 90 % of control | dose: 2.0 mg/kg/injection, schedule: Q01DX001 (ip), vehicle: propolene glycol 89 % of control | dose: 3.0 mg/kg/injection, schedule: Q01DX001 (ip), vehicle: propolene glycol 89 % of control | dose: 4.0 mg/kg/injection, schedule: Q01DX001 (ip), vehicle: propolene glycol 92 % of control | dose: 6.0 mg/kg/injection, schedule: Q01DX001 (ip), vehicle: propolene glycol 89 % of control | dose: 6.5 mg/kg/injection, schedule: Q01DX001 (ip), vehicle: olive oil, sesame oil, peanut oil 98 % of control | dose: 8.0 mg/kg/injection, schedule: Q01DX001 (ip), vehicle: propolene glycol 92 % of control | dose: 12.5 mg/kg/injection, schedule: Q01DX001 (ip), vehicle: propolene glycol 95 % of control | dose: 12.5 mg/kg/injection, schedule: Q01DX009 (sc), vehicle: olive oil, sesame oil, peanut oil 95 % of control | dose: 13.0 mg/kg/injection, schedule: Q01DX001 (ip), vehicle: olive oil, sesame oil, peanut oil 104 % of control | dose: 25.0 mg/kg/injection, schedule: Q01DX001 (ip), vehicle: propolene glycol 91 % of control | dose: 25.0 mg/kg/injection, schedule: Q01DX009 (sc), vehicle: olive oil, sesame oil, peanut oil 103 % of control | dose: 26.0 mg/kg/injection, schedule: Q01DX001 (ip), vehicle: olive oil, sesame oil, peanut oil 96 % of control | dose: 40.0 mg/kg/injection, schedule: Q01DX001 (ip), vehicle: olive oil, sesame oil, peanut oil 102 % of control | dose: 50.0 mg/kg/injection, schedule: Q01DX009 (sc), vehicle: olive oil, sesame oil, peanut oil 97 % of control | dose: 60.0 mg/kg/injection, schedule: Q01DX001 (ip), vehicle: olive oil, sesame oil, peanut oil 98 % of control | dose: 93.0 mg/kg/injection, schedule: Q01DX001 (ip), vehicle: olive oil, sesame oil, peanut oil 100 % of control | dose: 100.0 mg/kg/injection, schedule: Q04DX003 (sc), vehicle: olive oil, sesame oil, peanut oil 97 % of control | dose: 125.0 mg/kg/injection, schedule: Q01DX001 (ip), vehicle: olive oil, sesame oil, peanut oil 106 % of control | dose: 187.0 mg/kg/injection, schedule: Q01DX001 (ip), vehicle: olive oil, sesame oil, peanut oil 98 % of control | dose: 250.0 mg/kg/injection, schedule: Q01DX001 (ip), vehicle: olive oil, sesame oil, peanut oil 98 % of control | dose: 250.0 mg/kg/injection, schedule: Q01DX001 (ip), vehicle: propolene glycol 113 % of control | dose: 375.0 mg/kg/injection, schedule: Q01DX001 (ip), vehicle: olive oil, sesame oil, peanut oil 104 % of control | dose: 500.0 mg/kg/injection, schedule: Q01DX001 (ip), vehicle: olive oil, sesame oil, peanut oil 93 % of control

CC(Cl)CN(Cc1cc(CN(CC(C)Cl)CC(C)Cl)c(O)cc1O)CC(C)Cl (configuration not stated)
inactive: dose: 12.5 mg/kg/injection, schedule: Q01DX001 (sc), vehicle: olive oil, sesame oil, peanut oil 102 % of control | dose: 12.5 mg/kg/injection, schedule: Q01DX015 (sc), vehicle: olive oil, sesame oil, peanut oil 95 % of control | dose: 25.0 mg/kg/injection, schedule: Q01DX001 (sc), vehicle: olive oil, sesame oil, peanut oil 100 % of control | dose: 25.0 mg/kg/injection, schedule: Q01DX015 (sc), vehicle: olive oil, sesame oil, peanut oil 110 % of control | dose: 50.0 mg/kg/injection, schedule: Q01DX001 (ip), vehicle: carboxymethylcellulose (CMC) 93 % of control | dose: 50.0 mg/kg/injection, schedule: Q01DX001 (sc), vehicle: olive oil, sesame oil, peanut oil 96 % of control | dose: 50.0 mg/kg/injection, schedule: Q01DX015 (sc), vehicle: olive oil, sesame oil, peanut oil 93 % of control | dose: 100.0 mg/kg/injection, schedule: Q01DX001 (ip), vehicle: carboxymethylcellulose (CMC) 110 % of control | dose: 100.0 mg/kg/injection, schedule: Q01DX001 (sc), vehicle: olive oil, sesame oil, peanut oil 102 % of control | dose: 100.0 mg/kg/injection, schedule: Q01DX015 (sc), vehicle: olive oil, sesame oil, peanut oil 95 % of control | dose: 200.0 mg/kg/injection, schedule: Q01DX001 (ip), vehicle: carboxymethylcellulose (CMC) 110 % of control | dose: 200.0 mg/kg/injection, schedule: Q01DX015 (sc), vehicle: olive oil, sesame oil, peanut oil 112 % of control | dose: 400.0 mg/kg/injection, schedule: Q01DX001 (ip), vehicle: carboxymethylcellulose (CMC) 104 % of control | dose: 400.0 mg/kg/injection, schedule: Q01DX015 (sc), vehicle: olive oil, sesame oil, peanut oil 104 % of control | dose: 600.0 mg/kg/injection, schedule: Q01DX015 (sc), vehicle: olive oil, sesame oil, peanut oil 102 % of control

C(#Cc1ccccc1)COCC1CO1 (configuration not stated)
inactive: dose: 50.0 mg/kg/injection, schedule: Q04DX003 (ip), vehicle: saline with Tween-80 95 % of control | dose: 100.0 mg/kg/injection, schedule: Q04DX003 (ip), vehicle: saline with Tween-80 98 % of control | dose: 200.0 mg/kg/injection, schedule: Q04DX003 (ip), vehicle: saline with Tween-80 91 % of control

COc1ccc(OC)c(NC(=O)SCCSC(=O)Nc2cc(OC)ccc2OC)c1
inactive: [1] 92 % of control | [2] 91 % of control | dose: 400.0 mg/kg/injection, schedule: Q01DX009 (ip), vehicle: Klucel (hydroxypropylcellulose) (HPC) 92 % of control

CCOC(=O)C1C(=O)NCC1c1ccccc1 (configuration not stated)
inactive: [3] 94 % of control and 97 % of control | [4] 104 % of control | [5] 108 % of control and 91 % of control

CC(C)OCc1c(N)nc(=S)[nH]c1C(=O)O
inactive: dose: 12.0 mg/kg/injection, schedule: Q01DX009 (ip), vehicle: saline 90 % of control | dose: 25.0 mg/kg/injection, schedule: Q01DX009 (ip), vehicle: saline 97 % of control | dose: 25.0 mg/kg/injection, schedule: Q04DX003 (ip), vehicle: saline 106 % of control | [3] 103 % of control and 92 % of control | dose: 50.0 mg/kg/injection, schedule: Q04DX003 (ip), vehicle: saline 97 % of control | dose: 100.0 mg/kg/injection, schedule: Q04DX003 (ip), vehicle: saline 102 % of control and 90 % of control

Nc1ccc2nc3c4ccccc4c(O)n3nc2c1
inactive: dose: 100.0 mg/kg/injection, schedule: Q04DX002 (ip), vehicle: saline with Tween-80 106 % of control | dose: 200.0 mg/kg/injection, schedule: Q04DX002 (ip), vehicle: saline with Tween-80 102 % of control | dose: 400.0 mg/kg/injection, schedule: Q04DX002 (ip), vehicle: saline with Tween-80 102 % of control

C=C(Br)C(C)(C)C
inactive: [3] 101 % of control | [4] 101 % of control | [5] 101 % of control
